Laboratory results reported in patent US6900315B2, “2-amino-9H-purin-9-yl compounds and methods for inhibiting/treating HIV infections and AIDS related symptoms” (Yale University, priority 2001, dated 2005).
Like-named read-outs stand apart in the source and are kept apart here.

What was measured:
[1] = molecular target: T1, mitochondrial polymerase gamma (Homo sapiens, UniProt P54098); assay: Nucleotide incorporation by mitochondrial polymerase gamma into an elongating DNA strand; assay type: biochemical; conditions: mitochondrial polymerase gamma, incorporation
T1 sequence (P54098 1-1239): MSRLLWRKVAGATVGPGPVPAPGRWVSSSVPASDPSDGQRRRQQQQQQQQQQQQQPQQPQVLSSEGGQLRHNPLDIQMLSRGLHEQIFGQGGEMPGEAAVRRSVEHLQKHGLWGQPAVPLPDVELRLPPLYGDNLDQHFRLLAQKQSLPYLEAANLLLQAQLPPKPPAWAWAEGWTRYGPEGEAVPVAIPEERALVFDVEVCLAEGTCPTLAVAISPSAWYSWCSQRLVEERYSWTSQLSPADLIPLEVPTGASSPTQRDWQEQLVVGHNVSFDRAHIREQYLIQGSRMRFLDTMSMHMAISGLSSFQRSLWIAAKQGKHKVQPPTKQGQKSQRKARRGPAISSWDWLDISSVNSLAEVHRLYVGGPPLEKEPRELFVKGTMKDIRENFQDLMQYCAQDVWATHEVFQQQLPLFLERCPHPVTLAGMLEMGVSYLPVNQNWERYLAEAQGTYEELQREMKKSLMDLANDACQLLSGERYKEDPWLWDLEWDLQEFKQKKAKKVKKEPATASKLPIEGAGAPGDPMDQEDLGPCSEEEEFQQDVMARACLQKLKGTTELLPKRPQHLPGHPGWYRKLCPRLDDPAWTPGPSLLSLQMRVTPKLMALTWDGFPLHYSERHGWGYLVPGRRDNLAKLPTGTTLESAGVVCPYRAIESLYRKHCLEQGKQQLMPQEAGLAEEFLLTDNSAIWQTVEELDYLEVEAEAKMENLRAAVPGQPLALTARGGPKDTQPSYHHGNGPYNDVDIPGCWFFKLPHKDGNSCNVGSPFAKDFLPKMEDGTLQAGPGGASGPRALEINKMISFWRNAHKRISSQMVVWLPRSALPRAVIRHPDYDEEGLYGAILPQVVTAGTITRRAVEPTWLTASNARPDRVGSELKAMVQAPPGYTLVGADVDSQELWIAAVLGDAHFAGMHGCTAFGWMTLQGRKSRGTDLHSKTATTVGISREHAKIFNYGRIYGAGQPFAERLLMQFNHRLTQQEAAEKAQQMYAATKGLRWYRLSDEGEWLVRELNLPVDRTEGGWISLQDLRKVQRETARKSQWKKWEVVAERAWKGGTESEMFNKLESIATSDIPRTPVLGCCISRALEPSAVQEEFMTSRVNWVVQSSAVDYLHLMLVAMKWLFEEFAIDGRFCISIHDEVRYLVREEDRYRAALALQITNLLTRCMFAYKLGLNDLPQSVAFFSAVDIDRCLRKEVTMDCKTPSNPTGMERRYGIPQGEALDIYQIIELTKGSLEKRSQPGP

[2] = molecular target: T2, wild type HIV-1 reverse transcriptase (Human immunodeficiency virus type 1 group M subtype B, UniProt P04585); assay: Kinetics of nucleotide incorporation by wild type HIV-1 reverse transcriptase; assay type: biochemical; conditions: RT WT
T2 construct: a mixture of 100 nM HIV-1 reverse transcriptase and 300 nM primer/template
Method: Continued research on the guanosine prodrug approach for making D4G a viable anti-HIV agent has yielded a number of new findings. In the present example, enzyme kinetics for the incorporation of the active metabolites of guanosine prodrugs with wild type HIV-1 reverse transcriptase was determined. In this experiment, a mixture of 100 nM HIV-1 reverse transcriptase and 300 nM primer/template in which the correct base incorporation is a guanine nucleotide was rapidly mixed with nucleotide in the presence of 50 mM Tris, 50 mM NaCl and 10 mM MgCl2 for a set amount of time and then the reaction was stopped by the addition 300 mM of EDTA.

[3] = molecular target: T1, mitochondrial polymerase gamma; assay: Exonuclease removal from chain terminated primer template by mitochondrial polymerase gamma; assay type: biochemical
[4] = molecular target: T2, wild type HIV-1 reverse transcriptase; conditions: from Ray and Anderson or Furman et al., cited from earlier work
HIV = conditions: cited from earlier work
CEM = assay: Toxicity, dye based cell growth assay, CEM; conditions: Homo sapiens, CCRF-CEM, 120 h, read-out: IC50 (inhibited 50% of the cell growth); CEM, T cell line, 5 days
Method: (§1) To determine the toxicity of the compounds to various cell lines (Table 1, below), a similar dye based assay is performed in the absence of HIV. The toxicity of the compounds alone therefore was determined.

KB = assay: Toxicity, dye based cell growth assay, KB; conditions: Homo sapiens, 120 h, read-out: IC50 (inhibited 50% of the cell growth), oral carcinoma, 5 days
Method: as §1

HeLa = assay: Toxicity, dye based cell growth assay, HeLa; conditions: Homo sapiens, 120 h, read-out: IC50 (inhibited 50% of the cell growth), cervical cancer cell line, 5 days
Method: as §1

HIV IIIB = assay: Anti-HIV activity in MT-2 cells infected with HIV IIIB, MTT dye cell viability; assay type: cell-based; conditions: summary of Table 1
Method: To assess the ability of the compounds according to the present invention to inhibit viral infection relative to other compounds experiments were performed in the MT-2 cell line, as previously described by Larder, et al., Antimicrobial Agents & Chemotherapy, vol. 34, 436 (1990). […] Cells were infected at an initial multiplicity of infection (MOI) of 0.1 and grown for 5 days. Cell viability was assessed by the use of dye metabolized by viable cells.

MT-2 = assay: Toxicity, dye based cell growth assay in absence of HIV, MT-2; conditions: Homo sapiens, MT2, 120 h, read-out: IC50 (inhibited 50% of the cell growth); MT-2, HTLV infected T cell line, 5 days
Method: as §1

HEP-G2 = assay: Toxicity, dye based cell growth assay, HEP-G2; conditions: Homo sapiens, HepG2, 120 h, read-out: IC50 (inhibited 50% of the cell growth); HEP-G2, hepatoma cell line, 5 days
Method: as §1

[5] = system: mitochondrial DNA in CEM cells; assay: Mitochondrial toxicity: ratio of mitochondrial DNA to Alu repeat in CEM cells; assay type: cell-based; conditions: human, 8 days
Source text: After 8 days of growth the cells were lysed and probed for the amount of mitochondrial DNA and normalized for differences in the amount of total DNA by probing for the Alu repeat. By comparing the amount of mitochondrial DNA to the amount of Alu repeat the % decrease in mitochondrial DNA in the presence of various concentrations of drug can be obtained. All experiments were done in triplicate. Techniques which are presented here have been previously described in Chen and Cheng, J. Biol. Chem., vol. 264, 11934-7 (1989).

[6] = Table 4, primer/template DNA/DNA
[7] = Table 4, primer/template DNA/RNA

With `Nc1nc2c(ncn2[C@H]2C[C@H](O)[C@@H](COP(=O)(O)OP(=O)(O)OP(=O)(O)O)O2)c(=O)[nH]1` [DGTP] the Kd [1] was 1.4 ± 0.3 µM, the kpol [1] was 175 ± 10 s⁻¹ and the “kpol/Kd” value [1] was 1.3e+08 ± 3e+07 M⁻¹ s⁻¹. For the same molecule, the Efficiency [2, 6] was 1.7 ± 0.3 s^−1μM^−1, the Kd [2, 6] was 14 ± 2 µM and the kpol [2, 6] was 24 ± 1 s⁻¹. The Efficiency [2, 7] was 3.1 ± 0.6 s^−1μM^−1, the Kd [2, 7] was 11 ± 2 µM and the kpol [2, 7] was 35 ± 2 s⁻¹. For the same molecule, the kexo [3] was 0.019 ± 0.0019 s⁻¹, the Kd ([4]; Table 3, substrate DNA/DNA) was 14 ± 2 µM and the “Selectivity = (kpol/Kd)dGTP/(kpol/Kd)analog” value ([4]; Table 3, substrate DNA/DNA) was 1. The kpol ([4]; Table 3, substrate DNA/DNA) was 24 ± 1 s⁻¹, the Kd ([4]; Table 3, substrate DNA/RNA) was 11 ± 2 µM and the “Selectivity = (kpol/Kd)dGTP/(kpol/Kd)analog” value ([4]; Table 3, substrate DNA/RNA) was 1. The kpol ([4]; Table 3, substrate DNA/RNA) was 35 ± 2 s⁻¹.

In the case of `Nc1nc2c(ncn2[C@H]2C=C[C@@H](CO)C2)c(=O)[nH]1` [carbovir], the “previously reported activity against HIV” value (HIV) is listed as “significant activity”.

In the case of `Nc1nc2c(ncn2[C@H]2C=C[C@@H](CO)O2)c(=O)[nH]1` [d4G, 9-(2,3-Dideoxy-β-D-glycero-pent-2-enofuranosyl)guanine], the IC50 (CEM) is given as 70 ± 11 µM, the “previously reported activity against HIV” value (HIV) is given as “inactive” and the IC50 (KB) is given as greater than 500 µM. The IC50 (HeLa) was 200 ± 13 µM, the “anti-HIV activity” value (HIV IIIB) was “complete inactivity” and the IC50 (MT-2) was 40 ± 9 µM. For the same molecule, the IC50 (HEP-G2) was 280 ± 19 µM, the “% Control (mtDNA/Alu)” value ([5]; 1 μM) was 105% and the “Ration of mtDNA/Alu” value ([5]; 1 μM) was 1.12 ± 0.17. For the same molecule, the “% Control (mtDNA/Alu)” value ([5]; 10 μM) was 106% and the “Ration of mtDNA/Alu” value ([5]; 10 μM) was 1.14 ± 0.07.
